# Measured values taken from patent US20120095024A1, “TOLUIDINE SULFONAMIDES AND THEIR USE” (Elara Pharmaceuticals GmbH, priority 2008, published 2012).
# Tested on: MCF7 cells
# Assay: Cell proliferation assay (ATPlite), MCF-7
# Type: cell-based, human
# Conditions: Homo sapiens, inhibition of cell proliferation, 72 h
# Procedure: MCF-7 human breast adenocarcinoma cells and HL-60 acute promyelocytic leukaemia cells were obtained from ATCC (LGC Promochem). HG-1 multiple myeloma cells were obtained from Dr. D. Hose (DKFZ Heidelberg). The CellSensor® HRE-bla HCT116 cell line (colorectal carcinoma) was obtained from Invitrogen.
# Cells were grown under humidified 95% air, 5% CO2 at 37° C. in Dulbecco's modified Eagle's medium (DMEM: MCF-7) or RPMI 1640 medium (RPMI: HL-60, HG-1) supplemented with 10% fetal bovine serum (FBS), 100 U/ml penicillin and 100 μg/ml streptomycin, 2 mM L-glutamine, and 2 ng/ml IL-6 (for the HG-1 cell line only). The HCT116 cell line was grown under the same atmospheric conditions in McCoy's 5A medium supplemented with 10% FBS and penicillin/streptomycin as above, in addition to blasticidin as a selection marker at a final concentration of 5 μg/ml.
# Cell proliferation experiments were carried out in 96-well tissue culture plates with seeding of 2000 cells/well (MCF-7) or 1000 cells/well (HL-60, HG-1) in 100 μl of the relevant medium. Cells were subsequently incubated under the conditions mentioned for 24 h prior to addition of compounds.
# For the determination of compound EC50 values, 10 μl compounds at 11× concentrations in 5.5% DMSO were added to the wells at various concentrations yielding a final constant percentage of 0.5% DMSO at the desired 1× compound concentration. As a positive control, cells were treated with 5.5% DMSO. The cells were then incubated for a further 72 h prior to the measurement.
# To determine the degree of inhibition of cell proliferation, cells were treated with ATPlite solution according to the manufacturer's instructions (PerkinElmer, ATPlite 1-step Luminescence ATP Detection Assay System) and luciferase readout measured on an Envision HTS multilabel plate reader (PerkinElmer) in luminescence mode according to established protocols. Raw data were imported into an ActivityBase database (IDBS, ID Business Solutions) and EC50 values calculated using the IDBS program ActivityBase XE. Table 2A and 2B show the IC50 values obtained in the above-outlined cell proliferation assay for exemplary compounds of the invention.
row,Structure (SMILES),EC50 [µM]
1,"Cc1ccc(S(=O)(=O)Nc2cc(-c3nnn[nH]3)ccc2C)cc1 [Example 1, 4-Methyl-N-[2-methyl-5-(1H-tetrazol-5-yl)-phenyl]-benzenesulfonamide]",1 to 10
2,"Cc1ccc(S(=O)(=O)Nc2cc(-n3cnnn3)ccc2C)cc1 [Example 2, 4-Methyl-N-(2-methyl-5-tetrazol-1-yl-phenyl)-benzenesulfonamide]",1 to 10
3,"Cc1ccc(S(=O)(=O)Nc2cc(-c3nnn(C)n3)ccc2C)cc1 [Example 6, 4-Methyl-N-[2-methyl-5-(2-methyl-2H-tetrazol-5-yl)-phenyl]-benzenesulfonamide]",1 to 10
4,"Cc1ccc(S(=O)(=O)Nc2cc(-c3cccc(C)c3)ccc2C)cc1 [Example 7, N-(4,3′-Dimethyl-biphenyl-3-yl)-4-methyl-benzenesulfonamide]",0.5 to 1
5,"COc1cccc(-c2ccc(C)c(NS(=O)(=O)c3ccc(C)cc3)c2)n1 [Example 9, N-[5-(6-Methoxy-pyridin-2-yl)-2-methyl-phenyl]-4-methyl-benzenesulfonamide]",0.5 to 1
6,"Cc1ccc(-c2ccc(C)c(NS(=O)(=O)c3ccc(C)cc3)c2)cc1 [Example 10, N-(4,4′-Dimethyl-biphenyl-3-yl)-4-methyl-benzenesulfonamide]",1 to 10
7,"Cc1ccc(S(=O)(=O)Nc2cc(-c3sc(C)nc3C)ccc2C)cc1 [Example 12, N-[5-(2,4-Dimethyl-thiazol-5-yl)-2-methyl-phenyl]-4-methyl-benzenesulfonamide]",< 0.5
8,"COc1ccc(S(=O)(=O)Nc2cc(-c3cc(C)sc3C)ccc2C)cc1 [Example 13, N-[5-(2,5-Dimethyl-thiophen-3-yl)-2-methyl-phenyl]-4-methoxy-benzenesulfonamide]",1 to 10
9,"COc1ccc(S(=O)(=O)Nc2cc(-c3ccsc3)ccc2C)cc1 [Example 14, 4-Methoxy-N-(2-methyl-5-thiophen-3-yl-phenyl)-benzenesulfonamide]",< 0.5
10,"COc1ccc(S(=O)(=O)Nc2cc(-c3ccsc3C)ccc2C)cc1 [Example 17, 4-Methoxy-N-[2-methyl-5-(2-methyl-thiophen-3-yl)-phenyl]-benzenesulfonamide]",< 0.5
11,"COc1ccc(-c2ccc(C)c(NS(=O)(=O)c3ccc(C)cc3)c2)cn1 [Example 18, N-[5-(6-Methoxy-pyridin-3-yl)-2-methyl-phenyl]-4-methyl-benzenesulfonamide]",1 to 10
12,"COc1ccc(S(=O)(=O)Nc2cc(-c3cnco3)ccc2C)cc1 [Example 20, 4-Methoxy-N-(2-methyl-5-oxazol-5-yl-phenyl)-benzenesulfonamide]",< 0.5
13,"COc1ccc(S(=O)(=O)Nc2cc(-n3cccc3)ccc2C)cc1 [Example 21, 4-Methoxy-N-(2-methyl-5-pyrrol-1-yl-phenyl)-benzenesulfonamide]",< 0.5
14,"Cc1ccc(S(=O)(=O)Nc2cc(-c3sccc3C)ccc2C)cc1 [Example 24, 4-Methyl-N-[2-methyl-5-(3-methyl-thiophen-2-yl)-phenyl]-benzenesulfonamide]",< 0.5
15,"Cc1ccc(S(=O)(=O)Nc2cc(-c3ccoc3C)ccc2C)cc1 [Example 25, 4-Methyl-N-[2-methyl-5-(2-methyl-furan-3-yl)-phenyl]-benzenesulfonamide]",< 0.5
16,"COc1cccnc1-c1ccc(C)c(NS(=O)(=O)c2ccc(C)cc2)c1 [Example 26, N-[5-(3-Methoxy-pyridin-2-yl)-2-methyl-phenyl]-4-methyl-benzenesulfonamide]",1 to 10
17,"Cc1ccc(S(=O)(=O)Nc2cc(-c3ncccc3C(F)(F)F)ccc2C)cc1 [Example 27, 4-Methyl-N-[2-methyl-5-(3-trifluoromethyl-pyridin-2-yl)-phenyl]-benzenesulfonamide]",1 to 10

row,Structure (SMILES),EC50 [µM]
1,"Cc1ccc(S(=O)(=O)Nc2cc(-c3ncccc3C)ccc2C)cc1 [Example 28, 4-Methyl-N-[2-methyl-5-(3-methyl-pyridin-2-yl)-phenyl]-benzenesulfonamide]",1 to 10
2,"Cc1ccc(S(=O)(=O)Nc2cc(-n3c(C)ccc3C)ccc2C)cc1 [Example 29, N-[5-(2,5-Dimethyl-pyrrol-1-yl)-2-methyl-phenyl]-4-methyl-benzenesulfonamide]",1 to 10
3,"COc1ccc(S(=O)(=O)Nc2cc(-n3ccc(C)n3)ccc2C)cc1 [Example 30, 4-Methoxy-N-[2-methyl-5-(3-methyl-pyrazol-1-yl)-phenyl]-benzenesulfonamide]",< 0.5
4,"Cc1ccc(S(=O)(=O)Nc2cc(-c3cc(C)ccn3)ccc2C)cc1 [Example 31, 4-Methyl-N-[2-methyl-5-(4-methyl-pyridin-2-yl)-phenyl]-benzenesulfonamide]",1 to 10
5,"Cc1ccc(S(=O)(=O)Nc2cc(-c3ccc(C)cn3)ccc2C)cc1 [Example 32, 4-Methyl-N-[2-methyl-5-(5-methyl-pyridin-2-yl)-phenyl]-benzenesulfonamide]",1 to 10
6,"Cc1ccc(S(=O)(=O)Nc2cc(-c3cccc(C)n3)ccc2C)cc1 [Example 33, 4-Methyl-N-[2-methyl-5-(6-methyl-pyridin-2-yl)-phenyl]-benzenesulfonamide]",0.5 to 1
7,"Cc1ccc(S(=O)(=O)Nc2cc(-c3cncc(C#N)c3)ccc2C)cc1 [Example 34, N-[5-(5-Cyano-pyridin-3-yl)-2-methyl-phenyl]-4-methyl-benzenesulfonamide]",< 0.5
8,"COc1cncc(-c2ccc(C)c(NS(=O)(=O)c3ccc(C)cc3)c2)c1 [Example 35, N-[5-(5-Methoxy-pyridin-3-yl)-2-methyl-phenyl]-4-methyl-benzenesulfonamide]",1 to 10
9,"COc1cc(C)c(-c2ccc(C)c(NS(=O)(=O)c3ccc(C)cc3)c2)cn1 [Example 36, N-[5-(6-Methoxy-4-methyl-pyridin-3-yl)-2-methyl-phenyl]-4-methyl-benzenesulfonamide]",1 to 10
10,"CCOc1ccc(-c2ccc(C)c(NS(=O)(=O)c3ccc(C)cc3)c2)cn1 [Example 37, N-[5-(6-Ethoxy-pyridin-3-yl)-2-methyl-phenyl]-4-methyl-benzenesulfonamide]",1 to 10
11,"Cc1ccc(S(=O)(=O)Nc2cc(-c3cc(C(F)(F)F)ccn3)ccc2C)cc1 [Example 38, 4-Methyl-N-[2-methyl-5-(4-trifluoromethyl-pyridin-2-yl)-phenyl]-benzenesulfonamide]",1 to 10
12,"Cc1ccc(S(=O)(=O)Nc2cc(-c3cccc(C(F)(F)F)n3)ccc2C)cc1 [Example 39, 4-Methyl-N-[2-methyl-5-(6-trifluoromethyl-pyridin-2-yl)-phenyl]-benzenesulfonamide]",0.5 to 1
13,"COc1ccc(S(=O)(=O)Nc2cc(-n3cc(C)cc3C)ccc2C)cc1 [Example 40, N-[5-(2,4-Dimethyl-pyrrol-1-yl)-2-methyl-phenyl]-4-methoxy-benzenesulfonamide]",1 to 10
14,"COc1ccc(S(=O)(=O)Nc2cc(-n3cccc3C#N)ccc2C)cc1 [Example 41, N-[5-(2-Cyano-pyrrol-1-yl)-2-methyl-phenyl]-4-methoxy-benzenesulfonamide]",0.5 to 1
15,"CC(=O)c1cccc(-c2ccc(C)c(NS(=O)(=O)c3ccc(C)cc3)c2)n1 [Example 42, N-[5-(6-Acetyl-pyridin-2-yl)-2-methyl-phenyl]-4-methyl-benzenesulfonamide]",0.5 to 1
16,"COc1ccc(-c2ccc(C)c(NS(=O)(=O)c3ccc(C)cc3)c2)nc1 [Example 44, N-[5-(5-Methoxy-pyridin-2-yl)-2-methyl-phenyl]-4-methyl-benzenesulfonamide]",< 0.5
